Tests used:
Type in all cases: cell-based
[1] = test system: AID-negative (AID−) primary human CLL cells; assay: survival of primary human CLL cells cultured with DIDS (manual cytometry); conditions: 30 micromolar DIDS, 2, 4 or 8 days, versus untreated
Description: AID-expressing (AID+) or AID-negative (AID−) primary human CLL cells were cultured as described in Example 4. Cells were cultured in basic RPMI-1640 medium without supplementation (untreated; triangle in FIG. 17) or with 30 micromolar DIDS. Open circles represent the data for AID-negative cells treated with 30 micromolar DIDS and filled boxes represent the data for AID-positive cells treated with 30 micromolar DIDS. The cell survival was scored by manual cytometry for viable cells after 2, 4, or 8 days of exposure.
(§1) Eight AID+ and eight AID− CLL samples were cultured in basic RPMI-1640 medium plus 30 micromolar DIDS, and survival was scored by manual cytometry for viable cells after 2, 4, 6, or 8 days. […] A total of 117 lymphoma or leukemia patients were studies, of which 106 were CLL patients. In 47% AID expression was determined by RT-PCR.

[2] = test system: RAD51 foci in primary mouse B-cells; assay: RAD51 focus formation after ionizing radiation (immunofluorescence)
Description: Primary mouse B-cells were isolated from spleen of wild type C57BL/6J mice by magnetic bead based sorting (Miltenyi) to purify B220+ IgM+ B-cells. B-cells were then […], exposed to 0 or 2.5 Gy ionizing radiation in a Cs137 irradiator, and then stained by immunofluorescence for foci of the homologous recombination factor RAD51. The fraction of cells in each culture showing formation of RAD51 foci within the nucleus is reported. Irradiated cells not cultured with DIDS (0 μM) show efficient focus formation. […] Error bars show the standard error of the mean (S.E.M) from three independent experiments.

[3] = test system: phospho-H2AX foci in mouse primary splenocytes (AID+/+ and AID−/−); assay: phospho-H2AX foci in activated splenocytes exposed to DIDS; conditions: 150 micromolar DIDS
From the text: Mouse primary splenocytes isolated from 8-12 week old wild type (AID+/+) and AID-knockout (AID−/−) mice as described in Example 1 were exposed to 150 micromolar DIDS, and activated by anti-CD40 antibody plus interleukin-4, fixed and stained for the DNA break marker phospho-H2AX and for nuclear DNA using the fluorescent DNA staining dye 4′,6-diamidino-2-phenylindole (DAPI). In FIG. 16A the fraction of cells containing 0, 1-2, or greater than 2 phospho-H2AX positive foci was quantified for AID+/+ (filled bars) and AID−/− (open bars) cells. […] In FIG. 16B the proportion of phospho-H2AX positive cells (filled bars) versus phospho-H2AX negative cells (open bars) was quantified for AID+/+ in comparison to AID−/− cultures. […] In FIG. 16C the number of foci per cell was quantified for DIDS-treated AID+/+ (filled bars) versus AID−/− (open bars) cells. Data are expressed as the absolute number of cells (y-axis) harboring the indicated number of phosphor-H2AX foci (from 0 to >20; x-axis).

[4] = test system: mouse B-lymphoid leukemia cell line CH12-F3; assay: total cell counts of CH12-F3 cells cultured with DIDS
Description: The mouse B-lymphoid leukemia cell line CH12-F3 was cultured in RPMI-1640 medium supplemented with 2-10 mM L-glutamine (Gibco), 10% (vol/vol) heat-inactivated fetal bovine serum (Omega Scientific) and 5% (vol/vol) NCTC 109 media (Gibco) (complete RPMI; non-activated) or complete RPMI-1640 medium containing 1 μg/ml anti-CD40 antibody, 25 ng/ml IL-4 and 1 ng/ml transforming growth factor beta 1 (TGF-beta1) (activated). Cultures were supplemented with 0, 50, 100, or 150 micromolar DIDS, and total cell counts were determined by manual cytometry after 0, 1, 2, 3, 4, or 6 days in culture.

[5] = test system: primary wild-type mouse splenocytes; assay: radiosensitivity of primary splenocytes after exposure to DIDS (cell counts after 2.5 Gy); conditions: Splenocyte, light or radiation study, 36 h, read-out: reduction in viability
Description: To validate DIDS as a potential agent, and to confirm its DSB repair inhibitory activity, radiosensitivity of primary wild-type mouse splenocytes was measured after exposure to DIDS. A total of 2×10^6 splenocytes were suspended in medium with 0, 300 μM, 600 μM or 1000 μM DIDS, or in vehicle-only control, and immediately given 2.5 Gy ionizing irradiation using a ^137Cs irradiator (Shepard). Cells were then cultured in medium containing the same DIDS concentration, and cell counts were determined after 36 hours recovery time.

[6] = test system: AID-expressing (AID+) primary human CLL cells; assay: survival of primary human CLL cells cultured with DIDS (manual cytometry)
Description: AID-expressing (AID+) or AID-negative (AID−) primary human CLL cells were cultured as described in Example 4. […] […] The cell survival was scored by manual cytometry for viable cells after 2, 4, or 8 days of exposure.
as §1

SMILES: O=S(=O)([O-])c1cc(N=C=S)ccc1/C=C/c1ccc(N=C=S)cc1S(=O)(=O)[O-].[Na+].[Na+] [DIDS, 4,4′diisothiocyanostilbene-2,2′-disulfonic acid]
- cell survival (viable cells) [1]: indistinguishable
- fraction of cells with RAD51 foci ([2]; 150 μM DIDS, 2.5 Gy ionizing radiation): completely inhibits radiation-induced RAD51 focus formation
- fraction of cells with RAD51 foci ([2]; 150 µM DIDS, irradiated cells (legend of FIG. 22)): completely inhibits radiation-induced RAD51 focus formation
- proportion of phospho-H2AX positive cells ([3]; AID+/+ in comparison to AID−/− cultures): higher percentage of phospho-H2AX positive cells
- fraction of cells with greater than 2 phospho-H2AX foci ([3]; AID+/+ versus AID−/− cells): significant higher fraction of cells with greater than 2 foci
- total cell number ([4]; activated cells (anti-CD40, IL-4, TGF-beta1), 150 micromolar DIDS): strong decrease of total cell number
- total cell number ([4]; non-activated cells, 0-150 micromolar DIDS): no difference in cell viability or cell proliferation
- cytotoxicity at 600 µM [5]: ~25%
- cytotoxicity at 1000 µM [5]: 87%
- cell viability ([6]; 10 μM DIDS): significant effects on cell viability
- cell survival (viable cells) ([6]; 30 micromolar DIDS, 2, 4 or 8 days): reduced cell viability
- cell viability, AID-positive versus AID-negative ([6]; 30 micromolar DIDS, eight AID+ and eight AID− CLL samples, 2, 4, 6 or 8 days): more strongly reduces cell viability in AID-positive than in AID-negative primary human CLL cells

From patent US10207988B2, “Methods and compositions for treatment of cancer and autoimmune disease” (THE JACKSON LABORATORY, priority 2011, dated 2019)
